Measurements reported in patent USRE47193E1, “Selectively substituted quinoline compounds” (EISAI R&D MANAGEMENT CO., LTD., priority 2013, dated 2019).
Several values for one entry are separate records, joined by “and”; a condition that tells them apart may be missing. Identical values can stand only once. Like-named read-outs stand apart in the source and are kept apart here.

Experiments:
human TLR8 = target: T1, human TLR8 (Homo sapiens, UniProt Q9NR97); experiment: HEK-293 human TLR8 NF-kappaB luciferase reporter assay (CL097); format: cell-based
T1 construct: host or cells: HEK-293, then stably transfected with pNiFty2(NF-kappaB)-luciferase reporter
T1 sequence (Q9NR97 27-1041): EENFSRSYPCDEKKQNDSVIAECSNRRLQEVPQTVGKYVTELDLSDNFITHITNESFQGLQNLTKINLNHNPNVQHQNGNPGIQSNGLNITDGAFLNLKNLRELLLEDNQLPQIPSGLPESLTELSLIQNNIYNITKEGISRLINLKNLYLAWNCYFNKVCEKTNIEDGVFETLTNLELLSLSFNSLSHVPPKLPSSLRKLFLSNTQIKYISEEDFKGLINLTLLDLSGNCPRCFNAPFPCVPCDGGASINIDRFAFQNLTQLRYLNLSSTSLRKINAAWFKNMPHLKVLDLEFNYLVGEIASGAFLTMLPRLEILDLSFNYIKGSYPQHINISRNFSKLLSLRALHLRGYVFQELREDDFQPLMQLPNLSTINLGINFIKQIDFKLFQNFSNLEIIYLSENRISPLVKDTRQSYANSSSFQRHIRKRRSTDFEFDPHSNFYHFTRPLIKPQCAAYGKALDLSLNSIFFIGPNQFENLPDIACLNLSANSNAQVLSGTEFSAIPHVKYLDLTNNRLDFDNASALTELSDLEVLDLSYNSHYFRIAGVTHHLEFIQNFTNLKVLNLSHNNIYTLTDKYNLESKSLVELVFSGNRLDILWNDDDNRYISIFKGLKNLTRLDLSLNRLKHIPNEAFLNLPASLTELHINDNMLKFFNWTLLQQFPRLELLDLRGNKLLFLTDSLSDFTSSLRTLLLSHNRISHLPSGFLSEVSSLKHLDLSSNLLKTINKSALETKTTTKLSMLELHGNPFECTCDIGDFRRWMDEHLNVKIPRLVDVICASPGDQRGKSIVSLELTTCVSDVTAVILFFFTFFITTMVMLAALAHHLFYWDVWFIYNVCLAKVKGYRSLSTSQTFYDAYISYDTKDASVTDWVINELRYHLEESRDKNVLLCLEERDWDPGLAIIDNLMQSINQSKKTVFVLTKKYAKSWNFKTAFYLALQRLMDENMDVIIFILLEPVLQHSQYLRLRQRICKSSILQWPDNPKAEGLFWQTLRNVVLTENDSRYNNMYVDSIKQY
Protocol: Effects on mouse TLR7 were also compared. Cells were stimulated overnight with TLR7/8 agonist CL097 at pre-determined ED70-80: 3 ug/ml for HEK-hTLR7, 1.5 ug/ml for HEK-mTLR7 and 12 ug/ml for HEK-hTLR8, before reading luminescence intensity. Three tests were performed and IC50 value was determined using Graphpad Prism 6 nonlinear regression curve fit.
HEK-293 cells (ATCC) were engineered to stably express a NF-kappaB transcription factor inducible E-selectin (ELAM-1) luciferase reporter derived from the plasmid pGL3 (Promega) containing base pairs −2241 bp to −254 bp from the promoter of the human E-selectin gene (Accession No. NM_000450). These cells were then subsequently engineered to stably and individually express human TLR4, TLR7 or TLR9 full-length ORF cDNAs. Human TLR4 cDNA (Accession No. NM_138554) was cloned into pcDNA 3.0 expression vector (Invitrogen). TLR4 transfected cells were also engineered to express human MD-2 co-receptor [MD-2 cDNA (Accession No. NM_015364) was cloned into the pEF-BOS vector] and were supplemented with 10 nM soluble CD14 (R&D Systems) in the media to optimize LPS responsiveness. Human TLR9 cDNA (Accession No. NM_017442) was cloned into the pBluescript II KS vector (Agilent). Human TLR7 cDNA (Accession No. NM_016562) was obtained from OriGene. HEK-293 cells stably expressing human TLR8 (Accession No. NM_138636) or mouse TLR7 (Accession No. NM_133211) were purchased from InvivoGen and were then stably transfected with pNiFty2(NF-kappaB)-luciferase reporter plasmid (InvivoGen). Each cell type was plated in Dulbecco's modified Eagle's medium (DMEM) containing 10% fetal bovine serum (FBS) at a density of 2.22×10^5 cells/ml into a 384-well plate and incubated for 2 days at 37° C., 5% CO2. Varying concentrations of antagonist compounds were then added. Cells were then incubated for another 30 minutes before adding the appropriate TLR agonist as follows (final concentrations indicated): lipopolysaccharide (LPS; Sigma) at 10 ng/ml for TLR4, CL097 (InvivoGen) at 3 ug/ml for human TLR7 and TLR8 and mouse TLR7, and CvG-2006-2A [sequence: […] (SEQ ID NO: 1) with phosphorothioate backbone, synthesized by Sigma-Aldrich] at 0.6 uM for TLR9.

Mouse Splenocytes = experiment: Mouse spleen cell-based assay (R848, IL-6 ELISA); settings: Mus musculus, Splenocyte, BALB/c spleen cells, 370 nM R848
Protocol: Mouse Spleen cell-based assay. Spleens were harvested from female BALB/c mice (Jackson Labs, Bar Harbor, Me.) euthanized by CO2. A single cell suspension was obtained by passing spleens through a 40 μm an nylon cell strainer. Cells were washed twice with 50 ml PBS (Mediatech, Inc., Manassas, Va.) and red blood cells were lysed in 5 ml RBC Lysis buffer (eBioscience, Inc., San Diego, Calif.) for 5 minutes at room temperature. Cells were washed twice more in PBS and finally resuspended in supplemented RPMI-1640 at 2.5×10^6 cells/ml. Cells were plated at 100 μl/well (2.5×10^5 cells/well) in 96-well tissue culture treated plates (Falcon). Serial dilutions of compounds solubilized in 100% DMSO were added in triplicate to cells to yield a final concentration of 0.1% DMSO. Cells were incubated with compound for 30 minutes at 37° C., 5% CO2 before adding 100 μl/well of 740 nM R848 (Resiquimod; GLSynthesis, Worcester, Mass.) in complete media for a final concentration of 370 nM R848. Cells were incubated for 20 hours at 37° C., 5% CO2. Culture supernatants were collected, and levels of IL-6 were assessed by standard ELISA procedure according to the manufacturer's recommended protocol (BD Biosciences, Inc., San Diego, Calif.).

[1] = HEK-293 assay format, read-out: HEK/hTLR8 IC50

In the case of `C[C@@H]1CN(c2ccc(C#N)c3ncccc23)C[C@H](CN2CC[C@H](O)C2)O1` [ER-886820], the IC50 (human TLR8; [1]) is reported as 78 nM.
Molecule `CC(=O)NC1CCN(CC2CN(c3ccc(C#N)c4ncccc34)CC(C)O2)CC1` (centres unmarked) [ER-888288] has an IC50 (Mouse Splenocytes) of 135 nM.
In the case of `C[C@@H]1CN(C[C@H]2CN(c3ccc(C#N)c4ncccc34)C[C@@H](C)O2)CCN1` [ER-887269], the IC50 (human TLR8; [1]) is reported as 3.2 nM.
`CC1CN(c2ccc(C#N)c3ncccc23)CC(CN2CCC(N(C)C)CC2)O1` (centres unmarked) [ER-887725] showed an IC50 (human TLR8; [1]) of 1 nM.
Work on `CCN(CCO)CCCC(C)Nc1ccnc2cc(Cl)ccc12` (centres unmarked) [HCQ, hydroxychloroquine, reference compound] yielded an IC50 (human TLR8; HEK-hTLR8, CL097 12 ug/ml, average of three tests, read-out: IC50 average) greater than 10000 nM and an IC50 (human TLR8; HEK-hTLR8, CL097 12 ug/ml, individual tests 1-3, read-out: IC50) greater than 10000 nM.
For `CC1CN(c2ccc(C#N)c3ncccc23)CC(CN2CCN(C)CC2C)O1` (centres unmarked) [ER-889556], the IC50 (Mouse Splenocytes) was 432 nM.
Work on `C[C@@H]1CN(c2ccc(C#N)c3ncccc23)C[C@H](CNC2CCCC2)O1` [ER-887145] yielded an IC50 (human TLR8; [1]) of 105 nM.
With `C[C@@H]1CN(c2ccc(C#N)c3ncccc23)C[C@H](CN2CCN(C)CC2)O1` [ER-887723] the IC50 (human TLR8; [1]) was 9 nM and the IC50 (Mouse Splenocytes) was 47 nM.
With `C[C@@H]1CN(c2ccc(C#N)c3ncccc23)C[C@H](CO)O1` [ER-885493, 5-((2R,6R)-2-(hydroxymethyl)-6-methylmorpholino)quinoline-8-carbonitrile] the IC50 (human TLR8; [1]) was 101 nM and the IC50 (Mouse Splenocytes) was 517 nM.
In the case of `CC[C@H]1CN(C[C@H]2CN(c3ccc(C#N)c4ncccc34)C[C@@H](C)O2)CCN1` [ER-890963], the IC50 (human TLR8; [1]) is reported as 2.8 nM and the IC50 (Mouse Splenocytes) is reported as 250 nM.
Molecule `C[C@@H]1CN(c2ccc(C#N)c3ncccc23)C[C@H](CN2CCC(O)CC2)O1` [ER-886953] has an IC50 (human TLR8; [1]) of 66 nM.
`CCCN1CCN(C[C@H]2CN(c3ccc(C#N)c4ncccc34)C[C@@H](C)O2)CC1` [ER-887724] was tested, and the IC50 (human TLR8; [1]) was 6 nM and the IC50 (Mouse Splenocytes) was 70 nM.
With `C[C@@H]1CN(c2ccc(C#N)c3ncccc23)C[C@H](C)O1` [ER-878952] the IC50 (human TLR8; [1]) was 6 nM and 19.5 nM and the IC50 (Mouse Splenocytes) was 1610 nM.
For `CC1CNC(=O)CN1C[C@H]1CN(c2ccc(C#N)c3ncccc23)C[C@@H](C)O1` (some centres unmarked) [ER-887722], the IC50 (human TLR8; [1]) was 21 nM and the IC50 (Mouse Splenocytes) was 463 nM.
Molecule `C[C@@H]1CN(c2ccc(C#N)c3ncccc23)C[C@H](CN2CCNCC2)O1` [ER-887253] has an IC50 (human TLR8; [1]) of 2 nM and an IC50 (Mouse Splenocytes) of 49 nM.
For `CC1CN(c2ccc(C#N)c3ncccc23)CC(CN2CCC(NC(=O)C(C)C)CC2)O1` (centres unmarked) [ER-889745], the IC50 (Mouse Splenocytes) was 90 nM.
In the case of `C[C@@H]1CN(c2ccc(C#N)c3ncccc23)C[C@H](C(=O)N[C@H]2CNC[C@H]2F)O1.Cl` [ER-899742, (2R,6R)-4-(8-cyanoquinolin-5-yl)-N-[(3S,4R)-4-fluoropyrrolidin-3-yl]-6-methylmorpholine-2-carboxamide hydrochloride], the IC50 (human TLR8; IC50, HEK-hTLR8, CL097 12 ug/ml, individual tests 1-3) is reported as 2 nM and 2.5 nM and 2.6 nM and the IC50 (human TLR8; IC50 average, HEK-hTLR8, CL097 12 ug/ml, average of three tests) is reported as 2.4 nM.
`C[C@@H]1CN(c2ccc(C#N)c3ncccc23)C[C@H](CN2CCC(N3CCCCC3)CC2)O1` [ER-887927, 5-((2S,6R)-2-([1,4′-bipiperidin]-1′-ylmethyl)-6-methylmorpholino)quinoline-8-carbonitrile] showed an IC50 (human TLR8; [1]) of 0.5 nM and an IC50 (Mouse Splenocytes) of 26 nM.
For `CC1CN(c2ccc(C#N)c3ncccc23)CC(CN2CCCC2CO)O1` (centres unmarked) [ER-886814], the IC50 (human TLR8; [1]) was 60 nM.
